According to BindingDB's records for doi:10.1111/j.1747-0285.2009.00905.x (Ariad Pharmaceuticals, 2010):

Assays:
[1] = target: Tyrosine-protein kinase ABL1 (Homo sapiens, UniProt P00519); experiment: In Vitro Kinase Assay
[2] = target: Tyrosine-protein kinase ABL1 [T315I] (Homo sapiens, UniProt P00519, T315I); experiment: In Vitro Kinase Assay
[3] = target: Proto-oncogene tyrosine-protein kinase Src (Homo sapiens, UniProt P12931); experiment: In vitro kinase assay using Abl, Abl T315I or Src kinase.
Sequence of Proto-oncogene tyrosine-protein kinase Src (P12931 whole entry, looked up): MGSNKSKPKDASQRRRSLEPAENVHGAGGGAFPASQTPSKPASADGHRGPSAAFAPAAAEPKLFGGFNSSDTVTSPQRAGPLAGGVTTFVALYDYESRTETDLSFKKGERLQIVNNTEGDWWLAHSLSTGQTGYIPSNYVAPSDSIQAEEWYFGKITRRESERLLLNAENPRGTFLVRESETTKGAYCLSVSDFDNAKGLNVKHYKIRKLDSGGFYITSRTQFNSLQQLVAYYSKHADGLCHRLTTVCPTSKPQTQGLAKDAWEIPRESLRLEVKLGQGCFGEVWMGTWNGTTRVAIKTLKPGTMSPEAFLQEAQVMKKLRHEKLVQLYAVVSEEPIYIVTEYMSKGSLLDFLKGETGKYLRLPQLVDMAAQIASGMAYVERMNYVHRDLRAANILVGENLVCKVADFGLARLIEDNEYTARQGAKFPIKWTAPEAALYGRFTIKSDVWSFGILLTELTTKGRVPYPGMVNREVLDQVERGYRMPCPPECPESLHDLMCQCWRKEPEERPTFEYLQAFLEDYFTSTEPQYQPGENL

Row | Structure (SMILES) | IC50 [1] | IC50 [2] | IC50 [3]
1 | Cc1ccc2[nH]ncc2c1/C=C/n1cnc2c(Nc3ccc(P(C)(C)=O)cc3)ncnc21 | < 0.5 nM | > 10000 nM | < 0.5 nM
2 | Cc1cccc(C)c1/C=C/n1cnc2c(Nc3ccc(P(C)(C)=O)cc3)ncnc21 [AP24149] |  | 8900 nM | 9.1 nM
